Assay results taken from US20110014243A1, “PHARMACEUTICAL COMPOSITIONS” (priority 2007, published 2011).

Test: Stability of milled and unmilled Compound 1A in combination with calcium carbonate, HPLC
Format: physicochemical
Conditions: mixed with calcium carbonate, open vials at 50° C. and 75% relative humidity
Method: Samples containing 1092 mg of calcium carbonate and […] Compound 1A (either milled or unmilled) were prepared and weighed into small amber glass bottles. Samples were stored in open vials at 50° C. and 75% relative humidity. The samples were then removed after two or four weeks and stored at room temperature for up to four days prior to being analysed and were stored in open vials at 50° C. and 75% RH. The blends of Compound 1A and calcium carbonate were transferred to a glass volumetric flask and diluted to a volume of 10 ml or 100 ml with a 0.05% trifluoroacetic acid (TFA) solution in 50/50 acetonitrile/water to provide a 1 mg/ml solution of Compound 1A. The solution was stirred using a magnetic stirrer for 20 minutes then left for 5 minutes before 1 ml aliquots were taken using a plastic syringe. The aliquots were filtered through a 0.45 μm syringe filter into amber glass vials for HPLC analysis.

Measured: area % of Compound 2A compared to Compound 1A

CC(C)c1cc(Oc2c(Br)cc(NC(=O)CC(=O)O)cc2Br)ccc1O [Compound 1A, 3-[[3,5-Dibromo-4-[4-hydroxy-3-(1-methylethyl)-phenoxy]-phenyl]-amino]-3-oxopropanoic acid]
0.2 area %: milled, 2 weeks | milled, 4 weeks | unmilled, 2 weeks | unmilled, 4 weeks
